Experimental data: the NIST ThermoML archive (doi:10.1021/je900812v)
Numbers after ± are expanded uncertainties.

What was measured:
[1] = Liquid; for mass density: 298.15 K, 101.33 kPa, Pycnometric method
[2] = Boiling temperature at pressure P; details: 101.3 kPa; Liquid; Ebulliometric method (Recirculating still)
[3] = refractive index (Na D-line) (dimensionless); details: 298.15 K; 101.33 kPa; Liquid; Standard Abbe refractometry

CCCCCO [pentan-1-ol]
Details	Boiling temperature at pressure P [°C]	mass density [kg/m3]	refractive index
[1]	–	811.2 ± 0.4	–
[2]	137.80 ± 0.3	–	–
[3]	–	–	1.4077 ± 0.0008

Details	vapor or sublimation pressure [kPa]
[1], 410.95 K, Ebulliometric method (Recirculating still)	101.3

CC(C)CCO [3-methylbutan-1-ol]
Details	mass density [kg/m3]
[1]	807.6 ± 0.2

[1]
Details	vapor or sublimation pressure [kPa]
336.35 K	5.27 ± 0.27
346.9 K	9.25 ± 0.28
354.2 K	12.96 ± 0.3
354.3 K	13.24 ± 0.3
356.85 K	14.83 ± 0.32
359.75 K	17.09 ± 0.33
360.65 K	17.61 ± 0.33
363.55 K	20.13 ± 0.4
364.05 K	20.81 ± 0.35
365.45 K	21.98 ± 0.37
368.3 K	25.18 ± 0.38
369.5 K	26.24 ± 0.38
371.5 K	28.64 ± 0.4
380.65 K	41.65 ± 0.53
381.65 K	43.64 ± 0.54
389.6 K	59.58 ± 0.67
391.35 K	64.3 ± 0.62
392.65 K	66.58 ± 0.64
395.55 K	74.19 ± 0.68
396.9 K	77.47 ± 0.7
398.25 K	81.46 ± 0.76
403.05 K	96.21 ± 1.2
403.75 K	99.99 ± 0.84
404.55 K	101.33 ± 0.7
405.15 K	103.46 ± 0.88
408.05 K	114.26 ± 0.94
410.95 K	125.72 ± 0.97
413.05 K	133.86 ± 0.98

CCCCCOC(C)=O [pentyl ethanoate]
Details	Boiling temperature at pressure P [°C]	mass density [kg/m3]	refractive index
[1]	–	872.3 ± 0.9	–
[2]	148.40 ± 0.3	–	–
[3]	–	–	1.4005 ± 0.0009

Details	vapor or sublimation pressure [kPa]
[1], 421.55 K, Ebulliometric method (Recirculating still)	101.3

CC(=O)OCCC(C)C [3-methylbutyl ethanoate]
Details	mass density [kg/m3]	refractive index
[1]	866.4 ± 0.2	–
[3]	–	1.39893 ± 0.0008

[1]
Details	vapor or sublimation pressure [kPa]
368.15 K	22.4 ± 0.4
369.35 K	23.4 ± 0.4
370.65 K	24.6 ± 0.4
371.85 K	25.7 ± 0.4
372.45 K	26.3 ± 0.4
380.65 K	35.3 ± 0.4
381.75 K	36.7 ± 0.4
387 K	43.9 ± 0.5
387.9 K	45.2 ± 0.5
390.95 K	50 ± 0.5
392.75 K	52.9 ± 0.5
394.25 K	55.5 ± 0.5
395.65 K	58 ± 0.5
398.65 K	63.7 ± 0.6
401.85 K	70.1 ± 0.6
403.35 K	73.3 ± 0.6
407.15 K	81.9 ± 0.7
409.55 K	87.8 ± 0.7
410.95 K	91.3 ± 0.7
412.85 K	96.3 ± 0.7
414.15 K	99.8 ± 0.7
414.85 K	101.7 ± 0.8
415.35 K	103.1 ± 0.8
416.45 K	106.2 ± 0.8
